System: uterine gene expression
Experiment: Gene expression profiling (HGU133A) in the uterus of ovariectomized monkeys treated with estradiol, tamoxifen or raloxifene
Format: in vivo, cynomolgus monkeys (Macaca fascicularis)

O=C(c1ccc(OCCN2CCCCC2)cc1)c1c(-c2ccc(O)cc2)sc2cc(O)ccc12 [raloxifene]
1.3 fold: Fold change relative to OVX: Cadherin 11, type 2, OB-cadherin (osteoblast) (uterus, OVX monkeys) | Fold change relative to OVX: Intercrine-alpha, mrna sequence (uterus, OVX monkeys) | Fold change relative to SHAM control: Cyclin D1 (PRAD1: parathyroid adenomatosis 1) (uterus, OVX monkeys)
1.2 fold: Fold change relative to OVX: Collagen, type V, alpha 1 (uterus, OVX monkeys) | Fold change relative to OVX: Collagen, type VI, alpha 3 (uterus, OVX monkeys) | Fold change relative to OVX: Cyclin D1 (PRAD1: parathyroid adenomatosis 1) (uterus, OVX monkeys) | Fold change relative to OVX: Heparan sulfate proteoglycan 2 (perlecan) (uterus, OVX monkeys) | Fold change relative to OVX: Phospholipid transfer protein (uterus, OVX monkeys) | Fold change relative to OVX: Procollagen-proline, 2-oxoglutarate 4-dioxygenase (proline 4-hydroxylase), alpha polypeptide II (uterus, OVX monkeys) | Fold change relative to OVX: Protein tyrosine kinase 9 (uterus, OVX monkeys) | Fold change relative to OVX: Stem cell growth factor; lymphocyte secreted C-type lectin (uterus, OVX monkeys)
little or no effect: Effect on transporter, redox, and cell cycle genes in the uterus (relative to estradiol) (cynomolgus monkey, in vivo)
only modest changes: Uterine expression changes: IGFBP 5, latent TGF beta binding protein 1, cysteine-rich angiogenic inducer 61 (cynomolgus monkey, in vivo)
downregulated: Uterine expression of the remaining signal transduction genes examined (tamoxifen: except for LDL receptor adaptor protein)
0.7 fold: Fold change relative to SHAM control: Chloride intracellular channel 4 (uterus, OVX monkeys) | Fold change relative to SHAM control: Collagen, type I, alpha 1 (uterus, OVX monkeys) | Fold change relative to SHAM control: Collagen, type VI, alpha 3 (uterus, OVX monkeys)
2.4 fold: Fold change relative to OVX: Biglycan (uterus, OVX monkeys) | Fold change relative to OVX: Nidogen (enactin) (uterus, OVX monkeys)
1.0 fold: Fold change relative to OVX: Cytochrome c oxidase subunit via polypeptide 1 (uterus, OVX monkeys) | Fold change relative to OVX: H2A histone family, member Y (uterus, OVX monkeys) | Fold change relative to OVX: Histone H2A.F/Z variant (uterus, OVX monkeys) | Fold change relative to OVX: LDL receptor adaptor protein (uterus, OVX monkeys) | Fold change relative to OVX: Peroxiredoxin 1 (uterus, OVX monkeys) | Fold change relative to OVX: Solute carrier family 22 (organic cation transporter), member 1-like (uterus, OVX monkeys) | Fold change relative to OVX: Tenascin C (hexabrachion) (uterus, OVX monkeys) | Fold change relative to OVX: Thioredoxin interacting protein (uterus, OVX monkeys) | Fold change relative to OVX: Ubiquinol-cytochrome c reductase, Rieske iron-sulfur polypeptide 1 (uterus, OVX monkeys) | Fold change relative to SHAM control: ATPase, H+ transporting, lysosomal 38 kda, V0 subunit d isoform 1 (uterus, OVX monkeys) | Fold change relative to SHAM control: Chondroitin sulfate proteoglycan 2 (versican) (uterus, OVX monkeys) | Fold change relative to SHAM control: Fibroblast growth factor 2 (basic) (uterus, OVX monkeys)
1.6 fold: Fold change relative to OVX: Osteoglycin (osteoinductive factor, mimecan) (uterus, OVX monkeys) | Fold change relative to OVX: Secreted frizzled-related protein 1 (uterus, OVX monkeys)
1.5 fold: Fold change relative to OVX: Dermatopontin (uterus, OVX monkeys) | Fold change relative to OVX: Integrin, beta 5 (uterus, OVX monkeys) | Fold change relative to OVX: Pituitary tumour-transforming 1 interacting protein (uterus, OVX monkeys)
1.7 fold: Fold change relative to OVX: Cysteine-rich, angiogenic inducer, 61 (uterus, OVX monkeys) | Fold change relative to OVX: Growth associated protein 43 (uterus, OVX monkeys) | Fold change relative to OVX: Procollagen C-endopeptidase enhancer (uterus, OVX monkeys) | Fold change relative to OVX: SPARC-like 1 (mast9, hevin) (uterus, OVX monkeys) | Fold change relative to OVX: Secreted protein, acidic, cysteine-rich (osteonectin) (uterus, OVX monkeys) | Fold change relative to OVX: Transforming growth factor, beta-induced, 68 kda (uterus, OVX monkeys)
0.5 fold: Fold change relative to SHAM control: ATPase, Na+/K+ transporting, beta 3 polypeptide (uterus, OVX monkeys) | Fold change relative to SHAM control: CDC28 protein kinase regulatory subunit 2 (uterus, OVX monkeys)
1.9 fold: Fold change relative to OVX: Collagen, type VIII, alpha 2 (uterus, OVX monkeys) | Fold change relative to OVX: Progesterone receptor (uterus, OVX monkeys)
1.8 fold: Fold change relative to OVX: Collagen, type I, alpha 1 (uterus, OVX monkeys) | Fold change relative to OVX: Latent transforming growth factor beta binding protein 1 (uterus, OVX monkeys)
approximately 2 fold: Uterine expression increase: insulin-like GF binding protein 2 and insulin-like GF 1 (compared with OVX controls)
0.6 fold: Fold change relative to SHAM control: Collagen, type V, alpha 1 (uterus, OVX monkeys)
1.1 fold: Fold change relative to OVX: ATPase, H+ transporting, lysosomal 38 kda, V0 subunit d isoform 1 (uterus, OVX monkeys) | Fold change relative to OVX: Chitinase 3-like 1 (cartilage glycoprotein-39) (uterus, OVX monkeys) | Fold change relative to OVX: Cytochrome c oxidase subunit viia polypeptide 2 (liver) (uterus, OVX monkeys) | Fold change relative to OVX: Insulin-like growth factor binding protein 2, 36 kda (uterus, OVX monkeys) | Fold change relative to OVX: Laminin, beta 1 (uterus, OVX monkeys) | Fold change relative to OVX: Phosphatase and tensin homolog (mutated in multiple advanced cancers 1) (uterus, OVX monkeys) | Fold change relative to OVX: SET domain, bifurcated 1 (uterus, OVX monkeys) | Fold change relative to OVX: Solute carrier family 25 (mitochondrial carrier; adenine nucleotide translocator), member 5 (uterus, OVX monkeys) | Fold change relative to OVX: Testis Enhanced Gene Transcript (Bax Inhibitor 1) (uterus, OVX monkeys) | Fold change relative to SHAM control: Collagen, type VIII, alpha 2 (uterus, OVX monkeys) | Fold change relative to SHAM control: Cytochrome c oxidase subunit viia polypeptide 2 (liver) (uterus, OVX monkeys)
2.2 fold: Fold change relative to OVX: LIM and senescent cell antigen-like domains 1 (uterus, OVX monkeys)
1.4 fold: Fold change relative to OVX: Chloride intracellular channel 4 (uterus, OVX monkeys) | Fold change relative to OVX: Chondroitin sulfate proteoglycan 2 (versican) (uterus, OVX monkeys) | Fold change relative to OVX: Collagen, type IV, alpha 2 (uterus, OVX monkeys) | Fold change relative to OVX: Fibulin 1 (uterus, OVX monkeys) | Fold change relative to OVX: Serine (or cysteine) proteinase inhibitor, clade H (heat shock protein 47), member 1, (collagen binding protein 1) (uterus, OVX monkeys) | Fold change relative to OVX: Wingless-type MMTV integration site family, member 2B (uterus, OVX monkeys)
0.9 fold: Fold change relative to OVX: ATPase, Na+/K+ transporting, beta 3 polypeptide (uterus, OVX monkeys) | Fold change relative to OVX: Dishevelled associated activator of morphogenesis 1 (uterus, OVX monkeys) | Fold change relative to OVX: Four and a half LIM domains 2 (uterus, OVX monkeys) | Fold change relative to OVX: G1 to S phase transition 1 (uterus, OVX monkeys) | Fold change relative to OVX: Matrix metalloproteinase 19 (uterus, OVX monkeys) | Fold change relative to OVX: Wingless-type MMTV integration site family, member 16 (uterus, OVX monkeys) | Fold change relative to SHAM control: Biglycan (uterus, OVX monkeys) | Fold change relative to SHAM control: Cysteine-rich, angiogenic inducer, 61 (uterus, OVX monkeys)
0.8 fold: Fold change relative to OVX: CDC28 protein kinase regulatory subunit 2 (uterus, OVX monkeys) | Fold change relative to OVX: Calcium channel, voltage-dependent, beta 2 subunit (uterus, OVX monkeys) | Fold change relative to OVX: Catenin (cadherin-associated protein), alpha-like 1 (uterus, OVX monkeys) | Fold change relative to OVX: Mitogen-activated protein kinase kinase kinase kinase 4 (uterus, OVX monkeys) | Fold change relative to OVX: Secreted frizzled-related protein 4 (uterus, OVX monkeys) | Fold change relative to SHAM control: Chitinase 3-like 1 (cartilage glycoprotein-39) (uterus, OVX monkeys) | Fold change relative to SHAM control: Collagen, type IV, alpha 2 (uterus, OVX monkeys) | Fold change relative to SHAM control: Cytochrome c oxidase subunit via polypeptide 1 (uterus, OVX monkeys) | Fold change relative to SHAM control: Dermatopontin (uterus, OVX monkeys)
2.0 fold: Fold change relative to OVX: Fibroblast growth factor 2 (basic) (uterus, OVX monkeys) | Fold change relative to OVX: Insulin-like growth factor binding protein 5 (uterus, OVX monkeys)

Source: patent publication US20130040882A1, “USE OF FIBROBLAST GROWTH FACTOR FRAGMENTS” (NOVARTIS AG, priority 2003, published 2013)
